Source: ChEMBL document CHEMBL4266045, “Understanding Molecular Drivers of Melanin Binding To Support Rational Design of Small Molecule Ophthalmic Drugs” (J Med Chem, 2018)

Key:
Sepia officinalis = assay: Binding affinity to Sepia officinalis melanin assessed as fraction unbound at 2 uM after 2 hrs by high-throughput screening assay
[1] = Lipophilicity, log D of compound; details: octanol/water

Row | Fu (Sepia officinalis) | logD [1] | Compound
1 | 34% | 3.77 | Cc1ccccc1Nc1ncnc2c1oc1ccccc12
2 | 0.1% | 2.98 | c1ccc2c(c1)oc1c(Nc3ccncc3)ncnc12

Second part, the compound before the results:

Row | Compound | Fu (Sepia officinalis) | logD [1]
3 | COc1cc(N)c(Cl)cc1C(=O)CCC1CCNCC1 | 34% | 0.01
4 | CN(C)c1nc2ccc(Cl)cc2s1 | 0.2% | 2.04
5 | Nc1nc2ccc(OC(F)(F)F)cc2s1 | 48% | 
6 | CCCCN1CCC(CCC(=O)c2cc(Cl)c(N)cc2OC)CC1 | 0.8% | 1.91
